Data taken from ChEMBL document CHEMBL3792349, “Synthesis of novel diazaphosphinanes coumarin derivatives with promoted cytotoxic and anti-tyrosinase activities” (Bioorg Med Chem Lett, 2016).
Blank lines part the entries; values can stand above or below the compound they belong to. The source made the active and inactive calls. The rule behind the calls is not given here.

Columns and labels:
[1] = target: T1, Tyrosinase (Agaricus bisporus) (UniProt O42713); test: Inhibition of mushroom tyrosinase using L-tyrosine as substrate assessed as dopachrome formation at 100 uM measured for 10 mins by spectrophotometric method relative to control
T1 sequence (whole entry): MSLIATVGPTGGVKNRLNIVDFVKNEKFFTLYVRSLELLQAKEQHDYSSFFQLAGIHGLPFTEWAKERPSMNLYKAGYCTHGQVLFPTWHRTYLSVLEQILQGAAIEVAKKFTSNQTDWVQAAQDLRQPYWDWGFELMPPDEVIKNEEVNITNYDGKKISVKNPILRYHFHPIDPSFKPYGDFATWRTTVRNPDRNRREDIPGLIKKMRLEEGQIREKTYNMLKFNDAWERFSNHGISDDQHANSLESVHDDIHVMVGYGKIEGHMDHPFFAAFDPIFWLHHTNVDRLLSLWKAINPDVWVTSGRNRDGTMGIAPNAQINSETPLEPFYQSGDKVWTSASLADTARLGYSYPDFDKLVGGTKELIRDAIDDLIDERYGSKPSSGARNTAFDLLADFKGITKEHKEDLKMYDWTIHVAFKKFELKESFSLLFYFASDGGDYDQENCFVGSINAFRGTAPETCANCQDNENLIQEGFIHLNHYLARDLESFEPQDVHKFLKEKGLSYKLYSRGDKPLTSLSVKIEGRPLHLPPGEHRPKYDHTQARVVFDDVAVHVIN

[2] = Cytotoxicity against human HCT116 cells assessed as inhibition of cell proliferation after 48 hrs by MTT assay; type: functional, cell-based, HCT-116
MCF7 = test: Cytotoxicity against human MCF7 cells assessed as inhibition of cell proliferation after 48 hrs by MTT assay; type: functional, cell-based

inhibition [1]: 80.7%
Compound: COc1ccc(P2(=S)NC(=S)C3=C(N2)Oc2c(c(=S)oc4ccccc24)C3c2ccc(Cl)cc2)cc1 (single isomer, unassigned; diastereomer 1) [listing 1 of 2 here]

inhibition [1]: inactive
Compound: COc1ccc(P2(=S)NC(=S)C3=C(N2)Oc2c(c(=S)oc4ccccc24)C3c2cccnc2)cc1 (stereo not given)
IC50 ([2]; Homo sapiens, HCT-116, 48 h): > 100 µM
IC50 (MCF7; Homo sapiens, MCF7, 48 h): > 100 µM

inhibition [1]: 56.8%
Compound: COc1ccc(P2(=S)NC(=S)C3=C(N2)Oc2c(c(=S)oc4ccccc24)C3c2ccc(OC)c(OC)c2)cc1 (single isomer, unassigned; diastereomer 2)

inhibition [1]: 68.8%
Compound: COc1ccc(C2C3=C(NP(=S)(c4ccc(OC)cc4)NC3=S)Oc3c2c(=S)oc2ccccc32)cc1 (single isomer, unassigned; diastereomer 2) [listing 1 of 2 here]

inhibition [1]: 88.7%
Compound: CCCCOc1ccc(C2C3=C(NP(=S)(c4ccc(OC)cc4)NC3=S)Oc3c2c(=S)oc2ccccc32)cc1 (single isomer, unassigned; diastereomer 2) [listing 1 of 2 here]

inhibition [1]: 97.4%
Compound: COc1ccc(P2(=S)NC(=S)C3=C(N2)Oc2c(c(=S)oc4ccccc24)C3c2ccccn2)cc1 (stereo not given)
IC50 ([2]; Homo sapiens, HCT-116, 48 h): > 100 µM
IC50 (MCF7; Homo sapiens, MCF7, 48 h): > 100 µM

inhibition [1]: inactive
Compound: COc1ccc(P2(=S)NC(=S)C3=C(N2)Oc2c(c(=S)oc4ccccc24)C3c2ccc(OC)c(OC)c2)cc1 (single isomer, unassigned; diastereomer 1) [listing 2 of 2 here]

inhibition [1]: 58.5%
Compound: COc1ccc(P2(=S)NC(=S)C3=C(N2)Oc2c(c(=S)oc4ccccc24)C3c2ccc(C)cc2)cc1 (single isomer, unassigned; diastereomer 1) [listing 2 of 2 here]

inhibition [1]: inactive
Compound: COc1ccc(C2C3=C(NP(=S)(c4ccc(OC)cc4)NC3=S)Oc3c2c(=S)oc2ccccc32)cc1 (single isomer, unassigned; diastereomer 1) [listing 1 of 2 here]

inhibition [1]: 16.1%
Compound: COc1ccc(P2(=S)NC(=S)C3=C(N2)Oc2c(c(=S)oc4ccccc24)C3c2ccc(Cl)cc2)cc1 (single isomer, unassigned; diastereomer 2) [listing 2 of 2 here]

inhibition [1]: 55%
Compound: CCCCOc1ccc(C2C3=C(NP(=S)(c4ccc(OC)cc4)NC3=S)Oc3c2c(=S)oc2ccccc32)cc1 (single isomer, unassigned; diastereomer 1) [listing 2 of 2 here]

Continued, compound first:

Compound: COc1ccc(P2(=S)NC(=S)C3=C(N2)Oc2c(c(=S)oc4ccccc24)C3c2ccc(OC)c(OC)c2)cc1 (single isomer, unassigned; diastereomer 1) [listing 1 of 2 here]
IC50 ([2]; Homo sapiens, HCT-116, 48 h): > 100 µM
IC50 (MCF7; Homo sapiens, MCF7, 48 h): > 100 µM

Compound: COc1ccc(P2(=S)NC(=S)C3=C(N2)Oc2c(c(=S)oc4ccccc24)C3c2ccc(C)cc2)cc1 (single isomer, unassigned; diastereomer 1) [listing 1 of 2 here]
IC50 ([2]; Homo sapiens, HCT-116, 48 h): 48 µM
IC50 (MCF7; mcf7): > 100 µM

Compound: COc1cccc2c1C(=O)c1c(O)c3c(c(O)c1C2=O)C[C@@](O)(C(=O)CO)C[C@@H]3O[C@H]1C[C@H](N)[C@H](O)[C@H](C)O1 [DOXORUBICIN]
IC50 (MCF7; Homo sapiens, MCF7, 48 h): 0.38 µM

Compound: COc1ccc(P2(=S)NC(=S)C3=C(N2)Oc2c(c(=S)oc4ccccc24)C3c2ccc(Cl)cc2)cc1 (single isomer, unassigned; diastereomer 2) [listing 1 of 2 here]
IC50 ([2]; hct-116): 30 µM
IC50 (MCF7; mcf7): 33 µM

Compound: COc1ccc(P2(=S)NC(=S)C3=C(N2)Oc2c(c(=S)oc4ccccc24)C3c2ccccc2)cc1 (single isomer, unassigned; diastereomer 1) [listing 1 of 2 here]
IC50 ([2]; Homo sapiens, HCT-116, 48 h): 71 µM
IC50 (MCF7; Homo sapiens, MCF7, 48 h): > 100 µM

Compound: COc1ccc(P2(=S)NC(=S)C3=C(N2)Oc2c(c(=S)oc4ccccc24)C3c2ccccc2)cc1 (single isomer, unassigned; diastereomer 2) [listing 1 of 2 here]
IC50 ([2]; hct-116): 68 µM

Compound: COc1ccc(P2(=S)NC(=S)C3=C(N2)Oc2c(c(=S)oc4ccccc24)C3c2ccccc2)cc1 (single isomer, unassigned; diastereomer 2) [listing 2 of 2 here]
inhibition [1]: inactive

Compound: COc1ccc(C2C3=C(NP(=S)(c4ccc(OC)cc4)NC3=S)Oc3c2c(=S)oc2ccccc32)cc1 (single isomer, unassigned; diastereomer 2) [listing 2 of 2 here]
IC50 ([2]; hct-116): 31.6 µM
IC50 (MCF7; mcf7): 99 µM

Compound: COc1ccc(P2(=S)NC(=S)C3=C(N2)Oc2c(c(=S)oc4ccccc24)C3c2ccc(C)cc2)cc1 (single isomer, unassigned; diastereomer 2) [listing 1 of 2 here]
inhibition [1]: 61.8%

Compound: CCCCOc1ccc(C2C3=C(NP(=S)(c4ccc(OC)cc4)NC3=S)Oc3c2c(=S)oc2ccccc32)cc1 (single isomer, unassigned; diastereomer 2) [listing 2 of 2 here]
IC50 ([2]; hct-116): 56 µM
IC50 (MCF7; mcf7): > 100 µM

Compound: COc1ccc(P2(=S)NC(=S)C3=C(N2)Oc2c(c(=S)oc4ccccc24)C3c2ccccc2)cc1 (single isomer, unassigned; diastereomer 1) [listing 2 of 2 here]
inhibition [1]: inactive

Compound: COc1ccc(P2(=S)NC(=S)C3=C(N2)Oc2c(c(=S)oc4ccccc24)C3c2ccc(Cl)cc2)cc1 (single isomer, unassigned; diastereomer 1) [listing 2 of 2 here]
IC50 ([2]; Homo sapiens, HCT-116, 48 h): 32 µM
IC50 (MCF7; Homo sapiens, MCF7, 48 h): 32 µM

Compound: CCCCOc1ccc(C2C3=C(NP(=S)(c4ccc(OC)cc4)NC3=S)Oc3c2c(=S)oc2ccccc32)cc1 (single isomer, unassigned; diastereomer 1) [listing 1 of 2 here]
IC50 ([2]; hct-116): 25.2 µM
IC50 (MCF7; mcf7): 37.2 µM

Compound: COc1ccc(P2(=S)NC(=S)C3=C(N2)Oc2c(c(=S)oc4ccccc24)C3c2ccc(C)cc2)cc1 (single isomer, unassigned; diastereomer 2) [listing 2 of 2 here]
IC50 ([2]; hct-116): 37 µM
IC50 (MCF7; mcf7): 40 µM

Compound: COc1ccc(C2C3=C(NP(=S)(c4ccc(OC)cc4)NC3=S)Oc3c2c(=S)oc2ccccc32)cc1 (single isomer, unassigned; diastereomer 1) [listing 2 of 2 here]
IC50 ([2]; Homo sapiens, HCT-116, 48 h): 49 µM
IC50 (MCF7; Homo sapiens, MCF7, 48 h): > 100 µM
